Measurements reported in patent US4675428A, “Sulfonic acid ester derivatives useful as antilipemic agents” (Taiho Pharmaceutical Company, Limited, priority 1982, dated 1987).

How the values were obtained:
[1] = biological target: esterase solution prepared from a purified microsome fraction of the liver of a rat; assay: Esterase inhibiting activity (hydrolysis of methyl butyrate); format: biochemical; settings: pH 8.0, 37° C., 60 min
Experimental: 1. Esterase inhibiting activity
A 10 micromole quantity of methyl butyrate in a 50% ethanol solution is added as a substrate to a specified amount of buffer solution containing 0.1 mole of trishydrochloric acid (pH 8.0). To the mixture is further added a 50% ethanol solution of the compound of the invention, immediately followed by addition of an esterase solution prepared from a purified microsome fraction of the liver of a rat (adjusted to hydrolyze 9 micromoles of methyl butyrate at 37° C. in one hour) as an enzyme solution. The mixture is reacted at 37° C. for 60 minutes.
After the reaction, alkaline hydroxylamine is added to the mixture to form a hydroxamic acid derivative of methyl butyrate, and a ferric salt is added to the derivative. The resulting red color is colorimetrically determined (at a wavelength of 540 nm) to determine the amount of remaining methyl butyrate. The esterase inhibiting ratios of the present compound at (at least three) different concentrations are plotted as ordinate, and the logarithms of the concentrations as abscissa to obtain a line, which gives the 50% inhibition concentration (IC50).

plasma triglycerides = assay: Antilipemic effect (plasma triglycerides after oral olive oil); format: in vivo, male Wistar rats; settings: Wistar rats, oral in olive oil (100 mg in 5 ml, 5 ml/kg), plasma 2 h after dosing
Experimental: Seven-week-old male Wistar rats weighing 200 to 220 g are used, 5 rats in each group.
The compound of the invention (100 mg) is dissolved in 5 ml of olive oil. The olive oil containing the compound is orally given to the rat with a probe at a dose of 5 ml/kg. Two hours thereafter, 6 ml of whole blood is withdrawn from the descending aorta of the rat under ether anesthesia with a syringe containing heparin. The blood is centrifuged at 5° C. and 3000 r.p.m. to obtain the plasma.
The plasma collected is used for determining the triglycerides content, using a triglycerides measuring kit (trade mark "Triglycerides-B Test Wako," product of Wako Junyaku Co., Ltd., Japan). Olive oil containing no compound is similarly given to a control group, while no treatment is conducted for a normal group. The triglycerides content in the plasma is also determined for these groups in the same manner as is the case with the test groups.
The percent hyperlipidemia inhibition achieved by the present compound is given by
Percent inhibitaion=(A-C/A-B)×100
in which A is the triglycerides content of the control group, B is the triglycerides content of the normal group, and C is the triglycerides content of the group to which the present compound is given.

chymotripsin = chymotripsin (Bos taurus, UniProt P00766); assay: Chymotripsin inhibiting activity (ATEE hydrolysis); format: biochemical; settings: 1 × 10^-4 mole; pH 8.0, 37° C., ATEE substrate
Experimental: 2. Chymotripsin inhibiting activity
An enzyme solution (0.1 unit of chymotripsin) is added to a specified quantity of buffer solution containing 0.1 mole of trishydrochloric acid (pH 8.0). To the mixture is further added a 50% ethanol solution of the compound of the invention, and the resulting mixture is reacted at 37° C. for 20 minutes.
On completion of the reaction, 10 micromoles of N-acetyl-L-thyrosine (ATEE) serving as a substrate is added to the mixture, and the resulting mixture is reacted at 37° C. for 30 minutes. After the completion of the reaction, the amount of remaining ATEE is determined by the same hydroxamic acid method as used in the method of determining the esterase inhibiting activity. The percent chymotripsin inhibition is given by
Percent inhibition=(A-B/A)×100
wherein A is the amount of hydrolyzed esters in the reaction system not containing the compound of the invention, and B is the amount of hydrolyzed esters in the reaction system containing the present compound.

[2] = Heat-stability on storage at 40° C. (HPLC content of undecomposed compound); format: physicochemical; settings: for remaining at 288 h / remaining at 360 h: solid storage; for remaining at 288 h: 12th day; for remaining at 360 h: 15th day; for Content (%) Start: start (initial content)
Experimental: The following compounds (200 mg each) were placed in transparent sample bottles, and left to stand at a constant temperature of 40° C. for 15 days. Thereafter, they were checked for the heat-stability by determining the change of content of the compounds which remained not decomposed as of the 12th and 15th day. The content was measured by high performance liquid chromatography using a 60:40 mixture of acetonitrile and water as an eluent, and the percentages of the content of the undecomposed compound were calculated based on the initial content.

Row | SMILES | IC50 [1] [nM] | Antilipemic TG inhibition (%) (plasma triglycerides) | Chymotripsin inhibition (%) (chymotripsin) | remaining at 288 h [2] [%] | remaining at 360 h [2] [%] | Content (%) Start [2] [%]
1 | CC1(C)CCC(C(=O)COS(=O)(=O)c2ccccc2)CC1 [Compound 16, 1-(benzenesulfonyloxy)-2-(4,4-dimethylcyclohexyl)-2-ethanone] | 5.8 | 77.5 | 71 | – | – | –
2 | CC(C)C[C@H]1CC[C@](C)(C(=O)COS(=O)(=O)c2ccccc2)CC1 [Compound 11] | 2200 | 70.5 | 15 | – | – | –
3 | CC(C)[C@H]1CC[C@](C)(C(=O)COS(=O)(=O)c2ccccc2)CC1 [Compound 7] | 16 | 72.0 | 26 | – | – | –
4 | Cc1cc(C)c(S(=O)(=O)OCC(=O)C2CCC(C)(C)CC2)c(C)c1 [Compound 17] | 2 | – | – | – | – | –
5 | CC[C@H]1CC[C@](CC)(C(=O)COS(=O)(=O)c2ccccc2)CC1 [Compound 3] | 340 | 47.1 | 25 | – | – | –
6 | CCOc1ccc(S(=O)(=O)OCC(=O)C2CCCCC2)cc1 [Compound C-6] | – | – | – | 80 | 14 | 100
7 | CCOc1ccc(S(=O)(=O)OCC(=O)C2CCC(CC)CC2)cc1 (stereo not shown) [Compound C-4] | – | – | – | 91 | 15 | 100
8 | CC(C)[C@H]1CC[C@](C)(C(=O)COS(=O)(=O)c2ccccc2)CC1 [Compound T-7] | – | – | – | 100 | 100 | 100
9 | CC[C@H]1CC[C@@](CC)(C(=O)COS(=O)(=O)c2ccccc2)CC1 [Compound 1] | 35000 | – | 12 | – | – | –
10 | CCCC1(C)CCC(C(=O)COS(=O)(=O)c2ccccc2)CC1 (stereo not shown) [Compound 19] | 4.2 | 95.4 | 34 | – | – | –
11 | CC(C)[C@H]1CC[C@@](C)(C(=O)COS(=O)(=O)c2ccccc2)CC1 [Compound 5] | 33000 | 49.0 | 14 | – | – | –
12 | O=C(CCC1CCCCC1)COS(=O)(=O)c1ccccc1 [Compound C-8] | – | – | – | 72 | 19 | 100
13 | COc1ccc(S(=O)(=O)OCC(=O)C2(C)CCC(CC(C)C)CC2)cc1 (stereo not shown) [Compound T-13] | – | – | – | 100 | 100 | 100
14 | Cc1cc(C)c(S(=O)(=O)OCC(=O)C2CCC(C(C)C)CC2)c(C)c1 (stereo not shown) [Compound C-3] | – | – | – | 95 | 40 | 100
15 | Cc1ccc(S(=O)(=O)OCC(=O)[C@H]2CC[C@H](C(C)(C)C)CC2)cc1 [Compound C-2] | – | – | – | 93 | 16 | 100
16 | Cc1cc(C)c(S(=O)(=O)OCC(=O)C2(C)CCC(C(C)C)CC2)c(C)c1 (stereo not shown) [Compound T-6] | – | – | – | 100 | 100 | 100
17 | O=C(COS(=O)(=O)c1ccccc1)C1CCC2(CCCC2)CC1 [Compound 22] | 22 | 84.2 | 41 | – | – | –
18 | CC(C)[C@H]1CC[C@H](C(=O)COS(=O)(=O)c2ccccc2)CC1 [Compound C-1] | – | – | – | 92 | 14 | 100
19 | O=C(COS(=O)(=O)c1ccccc1)C1CCC2(CCCCC2)CC1 [Compound 24] | 5.4 | 93.5 | 61 | – | – | –
20 | COc1ccc(S(=O)(=O)OCC(=O)C2CCC(C)(C)CC2)cc1 [Compound 18] | 2500 | – | – | – | – | –
21 | Cc1ccc(S(=O)(=O)OCC(=O)C2CCC3(CCCC3)CC2)cc1 [Compound 23] | 3000 | – | – | – | – | –
22 | Cc1cc(C)c(S(=O)(=O)OCC(=O)C2CCCCC2)c(C)c1 [Compound C-7] | – | – | – | 95 | 20 | 100
23 | Cc1ccc(S(=O)(=O)OCC(=O)C2(C)CCC(C(C)C)CC2)cc1 (stereo not shown) [Compound 8] | 560 | – | 35 | – | – | –
24 | Cc1ccc(S(=O)(=O)OCC(=O)C2(C)CCC(C(C)C)CC2)cc1 (stereo not shown) [Compound T-8] | – | – | – | 100 | 100 | 100
25 | O=C(COS(=O)(=O)c1ccccc1)C1CCCCC1 [Compound C-5] | – | – | – | 85 | 15 | 100
